Measured values reported in patent US8569327B2, “Phenanthroindolizidine derivative and NFκB inhibitor containing same as active ingredient” (Kabushiki Kaisha Yakult Honsha, priority 2008, dated 2013).

Legend:
NFκB = experiment: Inhibitory action on the NFκB activity, luciferase assay in SW480/NRE-Luc cells; format: cell-based, human; details: for IC50: Homo sapiens, SW480, read-out: NFκB inhibitory activity IC50; for NFκB inhibitory activity IC50: SW480/NRE-Luc cells, compound 1 h then 50 ng/mL TNFα 4 h, luciferase
Description: (§1) The action of the phenanthroindolizidine alkaloid compound of the present invention on the NFκB activity was studied using a luciferase assay. Human colon cancer SW480 cells were transfected with pNFκB-Luc Plasmid (Stratagene), which is a reporter vector in which a five-time tandem repeat of the NFκB responsive element (NRE) is integrated into the upstream of the luciferase gene, using Lipofectamine 2000 (Invitrogen Corporation) in accordance with the attached operating procedure. Subsequently, the cells were cultured in an RPMI1640 medium containing 10% FBS, 100 U/mL penicillin, 100 μg/mL streptomycin, and 0.5 mg/mL G418 to produce SW480 cells having the luciferase gene, the expression of which is regulated by NRE, stably introduced therein (SW480/NRE-Luc cells). Likewise, SW480 cells were transfected with pGL3-Control Vector (Promega Corporation), which is a reporter vector in which the SV40 promoter is integrated into the upstream of the luciferase gene, to produce SW480 cells having the luciferase gene, the expression of which is regulated by the SV40 promoter, stably introduced therein (SW480/SV40-Luc cells). The SW480/NRE-Luc cells or the SW480/SV40-Luc cells were suspended in an RPMI1640 medium containing 10% FBS, 100 U/mL penicillin, and 100 μg/mL streptomycin (10% FBS/RPMI1640), and then seeded in a 96-well microplate, followed by culturing under conditions of 5% CO2 and at 37° C. (5000 cells/well). After an overnight culture, the compound of the present invention was added, followed by culturing for one hour. Further, 50 ng/mL TNFα (Sigma-Aldrich Corporation) was added, followed by culturing for four hours. Subsequently, a Steady-Glo Luciferase Assay reagent (Promega Corporation) was added, and the luminescent intensity was detected by SpectraMax M5e (Molecular Devices, Inc.) to measure the intracellular luciferase activity. It is to be noted that the action of the compound of the present invention on the NFκB activity or the SV40 promoter activity was shown as IC50 values (the concentration of a test compound needed for 50% inhibition of the induction of the luciferase expression).

SV40 promoter = SV40 promoter activity, luciferase assay in SW480/SV40-Luc cells; format: cell-based, human; details: for IC50: Homo sapiens, SW480, read-out: SV40 promoter inhibitory activity IC50; for SV40 promoter inhibitory activity IC50: SW480/SV40-Luc cells, luciferase
Description: as §1

[1] = test system: human colon cancer SW480 cells; experiment: Inhibitory action on the proliferation of SW480 cells; format: cell-based; details: 48 hours, TetraColor ONE; for IC50: Homo sapiens, SW480
Description: (§2) The action of the phenanthroindolizidine alkaloid compound of the present invention on the proliferation of human colon cancer SW480 cells, HT-29 cells, and human non-small cell lung cancer A549 cells was studied. The SW480 cells were suspended in a 10% FBS/RPMI1640 and then seeded in a 96-well microplate, followed by culturing in 5% CO2 at 37° C. (2000 cells/well). The A549 cells and the HT-29 cells were each suspended in a DMEM medium containing 10% FBS, 100 U/mL penicillin, and 100 μg/mL streptomycin (10% FBS/DMEM) and a DMEM F-12 HAM medium containing 10% FBS, 100 U/mL penicillin, and 100 μg/mL streptomycin (10% FBS/DMEM F12 HAM), and then seeded in 96-well microplates, followed by culturing in 5% CO2 at 37° C. (1000 cells/well). After an overnight culture, the compound of the present invention was added, followed by further culturing for 48 hours (SW480 cells) and 96 hours (A549 cells and HT-29 cells). After culturing, the number of viable cells was counted using TetraColor ONE (Seikagaku Corporation) in accordance with the attached operating procedure. The results were expressed as the concentration of a test compound needed for 50% inhibition of the proliferation of the cells (IC50).

[2] = test system: human colon cancer HT-29 cells; experiment: Inhibitory action on the proliferation of HT-29 cells; format: cell-based; details: 96 hours, TetraColor ONE; for IC50: Homo sapiens, HT-29
Description: as §2

[3] = test system: human non-small cell lung cancer A549 cells; experiment: Inhibitory action on the proliferation of A549 cells; format: cell-based; details: 96 hours, TetraColor ONE; for IC50: Homo sapiens, A549
Description: as §2

[4] = test system: mice transplanted with mouse fibrosarcoma Meth A cells; experiment: Animal toxicity test; format: in vivo; details: intravenous days 1, 5, 9, observed three weeks
Description: Also, the toxicity of known phenanthroindolizidine alkaloid compounds, namely (12aS,13S)-6,7-dimethoxy-9,10,11,12,12a,13-hexahydro-9a-aza-cyclopenta[b]triphenylene-3,13-diol (known compound 1; refer to WO01/023384) and (12aS,13S)-3,6,7-trimethoxy-9,10,11,12,12a,13-hexahydro-9a-aza-cyclopenta[b]triphenylene-13-ol (known compound 2; refer to Planta Med., 2002, 68: 186-188), was simultaneously studied. To a control group, a physiological saline solution, a solvent, was administered. As a result, as shown in the following Tables 35 and 36, all the mice survived in a group administered with the compound of the present invention.

COc1cc2c3c(c4ccccc4c2cc1OC)[C@@H](O)[C@H]1CCCN1C3.Cl [Compound 2, (12aR,13R)-6,7-dimethoxy-9,10,11,12,12a,13-hexahydro-9a-aza-cyclopenta[b]triphenylene-13-ol hydrochloride]
IC50 (NFκB): 387 ng/mL
IC50 (SV40 promoter): > 10000 ng/mL
IC50 [1]: 1020 ng/mL
IC50 [2]: 204 ng/mL
IC50 [3]: 211 ng/mL
Mortality rate ([4]; total dose 25 mg/kg): 0/5
Mortality rate ([4]; total dose 50 mg/kg): 0/5

CCc1ccc2c3c(c4cc(OC)c(OC)cc4c2c1)CN1CCC[C@@H]1[C@@H]3O.Cl [Compound 4, (12aR,13R)-3-ethyl-6,7-dimethoxy-9,10,11,12,12a,13-hexahydro-9a-aza-cyclopenta[b]triphenylene-13-ol hydrochloride]
IC50 (NFκB): 201 ng/mL
IC50 (SV40 promoter): > 10000 ng/mL
IC50 [1]: 513 ng/mL
IC50 [2]: 121 ng/mL
IC50 [3]: 101 ng/mL
Mortality rate ([4]; total dose 25 mg/kg): 0/5
Mortality rate ([4]; total dose 50 mg/kg): 0/5

COc1cc2c3c(c4ccc(F)cc4c2cc1OC)[C@@H](O)[C@H]1CCCN1C3.Cl [Compound 6, (12aR,13R)-3-fluoro-6,7-dimethoxy-9,10,11,12,12a,13-hexahydro-9a-aza-cyclopenta[b]triphenylene-13-ol hydrochloride]
IC50 (NFκB): 166 ng/mL
IC50 (SV40 promoter): > 10000 ng/mL
IC50 [1]: 567 ng/mL
IC50 [2]: 38.8 ng/mL
IC50 [3]: 34.1 ng/mL
Mortality rate ([4]; total dose 25 mg/kg): 0/5
Mortality rate ([4]; total dose 50 mg/kg): 0/5

COc1cc2c3c(c4ccc(OC(C)=O)cc4c2cc1OC)[C@H](O)[C@@H]1CCCN1C3.Cl [Compound 7, acetic acid(12aS,13S)-13-hydroxy-6,7-dimethoxy-9,10,11,12,12a,13-hexahydro-9a-aza-cyclopenta[b]triphenylene-3-yl ester hydrochloride]
NFκB inhibitory activity IC50 (NFκB): 0.25 ng/mL
SV40 promoter inhibitory activity IC50 (SV40 promoter): >100 ng/mL
SW480 proliferation inhibitory action IC50 [1]: 0.41 ng/mL
HT-29 proliferation inhibitory action IC50 [2]: 0.080 ng/mL
A549 proliferation inhibitory action IC50 [3]: 0.63 ng/mL
Mortality rate ([4]; total dose 25 mg/kg): 0/5
Mortality rate ([4]; total dose 50 mg/kg): 0/5

COc1cc2c3c(c4ccc(OC(C)=O)cc4c2cc1OC)[C@H](OC(C)=O)[C@@H]1CCCN1C3.Cl [Compound 8, acetic acid(12aS,13S)-3-acetoxy-6,7-dimethoxy-9,10,11,12,12a,13-hexahydro-9a-aza-cyclopenta[b]triphenylene-13-yl ester hydrochloride]
NFκB inhibitory activity IC50 (NFκB): 63.2 ng/mL
SV40 promoter inhibitory activity IC50 (SV40 promoter): >1000 ng/mL
SW480 proliferation inhibitory action IC50 [1]: 17.0 ng/mL
HT-29 proliferation inhibitory action IC50 [2]: 5.8 ng/mL
A549 proliferation inhibitory action IC50 [3]: 1.5 ng/mL
Mortality rate ([4]; total dose 25 mg/kg): 0/5
Mortality rate ([4]; total dose 50 mg/kg): 0/5

COc1cc2c3c(c4ccc(OC(=O)N5CCC(N6CCCCC6)CC5)cc4c2cc1OC)[C@H](O)[C@@H]1CCCN1C3 [Compound 13, [1,4′]bipiperidinyl-1′-carboxylic acid(12aS,13S)-13-hydroxy-6,7-dimethoxy-9,10,11,12,12a,13-hexahydro-9a-aza-cyclopenta[b]triphenylene-3-yl ester]
NFκB inhibitory activity IC50 (NFκB): 20.3 ng/mL
SV40 promoter inhibitory activity IC50 (SV40 promoter): >1000 ng/mL
SW480 proliferation inhibitory action IC50 [1]: 19.5 ng/mL
HT-29 proliferation inhibitory action IC50 [2]: 21.6 ng/mL
A549 proliferation inhibitory action IC50 [3]: 7.4 ng/mL
Mortality rate ([4]; total dose 25 mg/kg): 0/5
Mortality rate ([4]; total dose 50 mg/kg): 0/5

COc1cc2c3c(c4ccc(OC(C)=O)cc4c2cc1OC)C(F)[C@@H]1CCCN1C3.Cl (stereo partly drawn) [Compound 14, acetic acid(S)-13-fluoro-6,7-dimethoxy-9,10,11,12,12a,13-hexahydro-9a-aza-cyclopenta[b]triphenylene-3-yl ester hydrochloride]
NFκB inhibitory activity IC50 (NFκB): 1.7 ng/mL
SV40 promoter inhibitory activity IC50 (SV40 promoter): >100 ng/mL
SW480 proliferation inhibitory action IC50 [1]: 2.1 ng/mL
HT-29 proliferation inhibitory action IC50 [2]: 0.62 ng/mL
A549 proliferation inhibitory action IC50 [3]: 0.23 ng/mL
Mortality rate ([4]; total dose 25 mg/kg): 0/5
Mortality rate ([4]; total dose 50 mg/kg): 0/5

COc1cc2c3c(c4ccc(OC(=O)c5cccs5)cc4c2cc1OC)[C@H](O)[C@@H]1CCCN1C3.Cl [Compound 19, thiophene-2-carboxylic acid(12aS,13S)-13-hydroxy-6,7-dimethoxy-9,10,11,12,12a,13-hexahydro-9a-aza-cyclopenta[b]triphenylene-3-yl ester hydrochloride]
NFκB inhibitory activity IC50 (NFκB): 3.0 ng/mL
SV40 promoter inhibitory activity IC50 (SV40 promoter): >100 ng/mL
SW480 proliferation inhibitory action IC50 [1]: 1.3 ng/mL
HT-29 proliferation inhibitory action IC50 [2]: 1.69 ng/mL
A549 proliferation inhibitory action IC50 [3]: 0.82 ng/mL
Mortality rate ([4]; total dose 25 mg/kg): 0/5
Mortality rate ([4]; total dose 50 mg/kg): 0/5

COc1ccc2c3c(c4cc(OC)c(OC)cc4c2c1)CN1CCC[C@H]1[C@H]3O [Known Compound 2, (12aS,13S)-3,6,7-trimethoxy-9,10,11,12,12a,13-hexahydro-9a-aza-cyclopenta[b]triphenylene-13-ol, reference compound]
Mortality rate ([4]; total dose 25 mg/kg, 25 mg/kg): 2/5
Mortality rate ([4]; total dose 25 mg/kg, listed as known compound 2, 25 mg/kg): some of the mice also died
Mortality rate ([4]; total dose 50 mg/kg, 50 mg/kg): 5/5
Mortality rate ([4]; total dose 50 mg/kg, listed as known compound 2, 50 mg/kg): all the mice died

COc1cc2c3c(c4ccc(O)cc4c2cc1OC)[C@H](O)[C@@H]1CCCN1C3 [Known compound 1, (12aS,13S)-6,7-dimethoxy-9,10,11,12,12a,13-hexahydro-9a-aza-cyclopenta[b]triphenylene-3,13-diol, reference compound]
Mortality rate ([4]; total dose 25 mg/kg): 0/5
Mortality rate ([4]; total dose 50 mg/kg, 50 mg/kg): 5/5
Mortality rate ([4]; total dose 50 mg/kg, listed as known compound 1, 50 mg/kg): all the mice died

benzhydryl-((S)-6,7-dimethoxy-3-pyrrolidine-9,10,11,12,12a,13-hexahydro-9a-aza-cyclopenta[b]triphenylene-3-yl)-amine methanesulfonate [Compound 58]
NFκB inhibitory activity IC50 (NFκB): 16.2 ng/mL
SV40 promoter inhibitory activity IC50 (SV40 promoter): >10000 ng/mL
SW480 proliferation inhibitory action IC50 [1]: 42.3 ng/mL
HT-29 proliferation inhibitory action IC50 [2]: 52.2 ng/mL
A549 proliferation inhibitory action IC50 [3]: 20.7 ng/mL
